EPA's ToxValDB 9.5 (doi:10.2903/j.efsa.2011.2159)
Values after ≈ are worked out from the molar mass of the structure shown.

Experiments:
Aphidius rhopalosiphi = settings: not reported; mortality
Apis mellifera = settings: acute; duration: 48 hours; oral; unspecified; mortality
Mus musculus = settings: acute; oral; mortality
Canidae = settings: chronic; duration: 1 years; oral; Dog Other; clinical signs
Bibionidae = settings: chronic/long-term; duration: 28 days
Colinus virginianus = settings: mortality; for LD50: acute, oral
Anas platyrhynchos = settings: mortality
Daphnia magna = settings: chronic/long-term; duration: 21 days; reproduction

Cc1c(COC(=O)[C@@H]2[C@H](/C=C(\Cl)C(F)(F)F)C2(C)C)cccc1-c1ccccc1 [Bifenthrin]
LEL (Aphidius rhopalosiphi): 60 g/ha | LD50 (Apis mellifera): 0.1 µg/piece | LD50 (Mus musculus): 42.5 mg/kg | NOAEL (Canidae): 1.5 mg/kg-day | NOEC (Bibionidae): 0.00032 mg/L | NOAEL (Rattus norvegicus; developmental, development): > 2 mg/kg-day | NOAEL (Rattus norvegicus; reproduction developmental, reproduction): 3 mg/kg-day | NOAEL (Rattus norvegicus; subchronic, duration: 90 days, oral, neurology): 2.9 mg/kg-day | LC50 (Oncorhynchus mykiss; acute, duration: 96 hours, mortality): 0.1 ng/mL (≈ 0.236 nM) | NOEC (Oncorhynchus mykiss; chronic/long-term, duration: 30 days, other): 1.2e-05 mg/L | LD50 (Colinus virginianus; diet): 569 mg/kg-day | LD50 (Colinus virginianus): 1800 mg/kg | NOEC (Colinus virginianus; reproduction developmental): 75 mg/kg-day | LD50 (Anas platyrhynchos; acute, oral, unspecified): > 2150 mg/kg | NOEC (Anas platyrhynchos; reproductive): 75 mg/kg | NOEC (Anas platyrhynchos; short-term, oral, feed): 312 mg/kg | LC50 (Tagia sp.; acute, duration: 14 days, mortality): > 16 mg/kg | NOEC (Tagia sp.; chronic/long-term, duration: 56 days, reproduction): 2.16 mg/kg | NOEC (Daphnia magna): 9.5e-07 mg/L
